Results: PMC7048748, “Anxiolytic Drug FGIN-1-27 Ameliorates Autoimmunity by Metabolic Reprogramming of Pathogenic Th17 Cells” (Scientific Reports, 2020)

How the values were obtained:
Assay type in all cases: cell-based, mouse
polarized Th17 cells = test: IL-17 production in fully differentiated Th17 cells after re-stimulation; settings: on re-stimulation
Description: We also tested whether FGIN-1-27 regulated IL-17 production in fully differentiated Th17 cells. […] Thus, FGIN-1-27 inhibits Th17 cell differentiation in vitro without compromising T cell activation or survival.
(h) Dose response plot showing effect of FGIN-1-27 on intracellular IL-17 and viability in pre- differentiated Th17 cells after re- stimulation. Data is normalized against […]
(i) Mean clinical scores of mice following active induction of EAE. Mice were injected i/p twice daily with vehicle or FGIN-1-27 for 7 days. Data are pooled from 5 mice/group. The error bars represent SEM.
(j) Binding of FGIN-1-27 to TSPO in a radioligand displacement assay. Inhibition of binding of control (radiolabeled PK-11195) was used to determine binding of FGIN- […]
(1 picture or pasted object on this page, not shown here)

eIF2α = test: Western blot for phosphorylated eIF2α; settings: 24 hours, compared to DMSO controls
Description: (a) MA-plot showing shrunken log2 fold-changes of detected genes between the DMSO and FGIN-1-27 RNA-seq samples, ranked by average normalized count. Red dots indicate differentially expressed genes at adjusted p-value <0.05. (b) Transcript levels for the indicated genes after 24 hours of treatment with DMSO or FGIN-1-27 quantified by qPCR. The error bars represent SD. (c) Western blot analysis for phosphorylated eIF2α and ATF4 24 hours after treatment with DMSO or FGIN-1-27 (5 and 10 µM). Data are representative of 3 independent experiments. (d) Amino acids in Th17 cells measured 72 hours after treatment with FGIN-1-27. The error bars represent SD. (e) ROS was measured using cell permeant reagent 2′,7′ –dichlorofluorescin diacetate (DCFDA) at 24 hours following treatment with FGIN-1-27. Filled grey histogram-DMSO, dotted line-FGIN-1-27 (10 µM) and dashed line indicates FGIN-1-27 (5 µM). […] Data are normalized using DMSO treated cells as 100% and the error bars represent SD.
Cell lysates were prepared by lysis in RIPA buffer containing protease and phosphatase inhibitors and immunoblotting was performed by standard methods.
(a) W estern blot analysis for phosphorylated eIF2α and ATF4 24 hours after treatment
with DMSO or FGIN-1-27 (5 and 10 µM). […]
(a) Indicated sterols were measured in Th17 cells treated with DMSO or FGIN-1-27 for […]

[1] = system: Th17 cells from TSPO KO mice; test: Th17 differentiation with CD4 T cells from TSPO knockout mice; settings: compared with T cells expressing TSPO
From the text: We explored the mechanism of action for FGIN-1-27 and whether the effect of FGIN-1-27 on Th17 differentiation was driven by TSPO, the reported target of this compound. We used two approaches: first, we investigated the correlation between FGIN-1-27 induced IL-17 down-regulation and binding to TSPO. For the binding studies, we used a biochemical radio ligand displacement assay with the well-characterized TSPO ligand PK-11195 as a tracer. […] Secondly, we purified CD4^+ T cells from spleen and lymph nodes of mice that lacked global expression of TSPO (TSPO KO mice)[19]. We added FGIN-1-27 to the cultures of CD4^+ T cells from controls or TSPO KO mice that were induced towards the Th17 differentiation program.
Figure 3 Effect of FGIN-1-27 on Th17 Differentiation is Independent of TSPO. (a) Plot showing correlation between binding of FGIN-1-27 to TSPO and effect on IL-17 production. Binding of FGIN-1-27 to TSPO was measured using a biochemical radiolabeled displacement assay and radiolabeled PK-11195 was used as a control ligand. (b) Immunoblot to detect TSPO from spleens of either control or TSPO knockout mice (upper panel) and dose response plot for FGIN-1-27 showing effect on Th17 differentiation using purified CD4 T cells from spleens of either control or TSPO knockout mice. IL-17 production was normalized using DMSO treatment from control cells as 100%. […]

Structure (SMILES): CCCCCCN(CCCCCC)C(=O)Cc1c(-c2ccc(F)cc2)[nH]c2ccccc12 [FGIN-1-27, N, N-di-n-hexyl 2-(4-fluorophenyl) indole-3-acetamide]
- IL-17 producing cells in fully differentiated Th17 cells (polarized Th17 cells): fewer IL-17 producing cells were detected
- increase in eIF2α phosphorylation (eIF2α): 4.5 fold
- Th17 differentiation in T cells from TSPO KO mice [1]: similarly to T cells expressing TSPO
